Laboratory results taken from patent publication US8017828B2, “Utilization of rare sugars in plant or microorganism” (Shikoku Research Institute Incorporated, priority 2004, dated 2011).
Read-outs that look alike come from different tables or passages of the source.

What was measured:
Vitis vinifera L. = assay type: in vivo
Procedure: Matured branches of “V. vinifera L.” grown outdoors were collected on December 25 during the dormant stage and were prepared to have one bud, and then, each cutting base was immersed in a 0.01, 0.1 or 1% aqueous solution of D-psicose for 24 hours. On the following day December 26, the same procedure as in 1 was carried out. In a control plot, distilled water was used, and to the liquid for treatment, Approach BI was not added. The judgment of bud flush was carried out in accordance with the method in 1. The measurement of bud flush was carried out on about a weekly basis.
In the survey of the bud flush rate, 9 cuttings were used for each plot and the procedure was repeated twice and an average was obtained.

[1] = tested on: Fusarium oxysporum (IFO 31213 strain); assay type: in vivo, tomato plant (variety: “House Momotaro”)
Procedure: By using a tomato plant and a strain of Fusarium oxysporum, which is a typical pathogenic bacterium of tomato, an effect of D-psicose during infection in a stage of raising seedlings thereof was examined.
To be more specific, seeds of a tomato plant (variety: “House Momotaro”) were subjected to an immersion treatment by immersing them in a 0.01% (w/v) D-psicose solution or a 0.007% (w/v) probenazole solution for 15 minutes while stirring slowly, followed by air-drying on sterile gauze, and then used as treated seeds. In the medium culture for raising seedlings (pete:pearlite:vermiculite=2:1:1), 0.01% (w/v) D-psicose or 0.007% (w/v) probenazole was mixed, and the soil was placed in black polypot plant containers with a diameter of 9 cm, and then, 4 seeds of the above treated seeds were sown in each pot. The seeds (20 seeds in total) were sown in 5 pots for each test plot. After sowing, the pots were placed in a growth chamber at 23° C. and 5,000 Lux (12-hour day length), and raising of seedlings was initiated. At 1 month and 2 months after the initiation of raising of seedlings, a suspension of mycelium of Fusarium oxysporum (IFO 31213 strain) was inoculated around the roots, whereby infection with Fusarium oxysporum was caused. After the inoculation of Fusarium oxysporum, the temperature was raised to 30° C., and cultivation was continued. At about 4 months after sowing, a survey was carried out with regard to the survival rate of plants, the conditions of browning of vascular bundles and roots, the stem diameter and the like.

lipoxygenase gene = test: Northern blotting of lipoxygenase gene expression in sprayed cut leaves of rough lemon; assay type: in vivo; settings: 0.5 mM sprayed on cut leaves, 2 to 48 hours
Procedure: Cut leaves of rough lemon were treated by spraying each of 0.5 mM L-psicose, L- & D-tagatose and D-sorbose thereon and were let stand for 2, 4, 6, 12, 24 and 48 hours at 24° C. under the dark condition in a moist chamber. Then, from the treated leaves, total RNA was extracted and the expression of genes of lipoxygenase and chitinase was analyzed by Northern blotting. The assays and analyses were repeated at least 3 times in all the treated plots, and equivalent results were obtained.

[2] = tested on: Arabidopsis thaliana Lan dsberg erecta (LER); test: Germination of Arabidopsis thaliana with 8 ketoses; assay type: in vivo; settings: 100 mM aqueous solution
Procedure: An effect of 8 types of ketoses on germination of Arabidopsis thaliana LER series which was an experimental plant was examined.
Two sheets of filter paper were placed in a dish with a diameter of 3.5 cm, and 30 seeds of Arabidopsis thaliana Lan dsberg erecta (LER) were sown per dish, and 0.5 mL of a treatment liquid was poured therein. Then, the dishes were placed in an environment control chamber under the condition of a constant temperature of 25° C. and 24-hour day length (fluorescent lamp, 70 μmol/m^2/s). After the sowing, a survey was carried out with regard to the number of seeds that germinated at 24-hour interval. As the treatment liquid, 100 mM, 10 mM and 1 mM aqueous solutions of any of D-fructose, D-psicose, D-tagatose, D-sorbose, L-fructose, L-psicose, L-tagatose and L-sorbose, and distilled water were used. The procedure was repeated three times for the respective treatment liquids.

[3] = tested on: tomato (Home Momotaro), sunny lettuce (Red Wave), morning glory (Tairin Zaki Kongo); test: Seed germination, short-time and continuous treatment (Experiment 2); assay type: in vivo; settings: continuous treatment with 1%
Procedure: In order to clarify an effect of a short-time treatment, 50 seeds of Salsola komarovii, tomato (Home Momotaro) and sunny lettuce (Red Wave), and 20 seeds of morning glory (Tairin Zaki Kongo) were immersed in any of deionized water, 1% D-psicose, 1% D-allose and 1% L-galactose for 24 hours (25° C., dark), respectively, then, they were lightly washed with deionized water. Then, the seeds were sown in a dish with a diameter of 9 cm having a filter paper placed therein, and germinated under the same condition by poring 5 to 10 ml of deionized water therein. Further, for the comparison, a continuous treatment with 1% D-psicose was carried out in accordance with the same procedure.

For O=C(CO)[C@H](O)[C@H](O)[C@H](O)CO [D-psicose], the bud flush rate (Vitis vinifera L.; 0.01%) was “a similar pattern to that of the control plot”, the bud flush rate (Vitis vinifera L.; 0.1%, throughout the whole period) was “the lowest value” and the bud flush rate (Vitis vinifera L.; 1%, after the mid-February) was “the highest value”. For the same compound, the “bud flush rate compared with control plot” value (Vitis vinifera L.; all plots (0.01, 0.1, 1%), until early February) was “lower”, the “state of green branches of grapes in summer after treatment” value (Vitis vinifera L.; in vivo) was “withered and dead” and the “degree of chemical damage (yellow discoloration of leaves)” value ([1]; in vivo) was “smaller than that of the case of probenazole”. For the same compound, the “Vascular bundle browning ratio” value ([1]; seed immersion (0.01% D-psicose or 0.007% probenazole), no seed treatment 25%) was 5%, the Stem diameter ([1]; seed immersion treatment) was “increased” and the “inhibitory effect on Fusarium wilt” value ([1]; seed immersion with D-psicose solution) was “equal to or more than that of probenazole”. For the same compound, the “induction of the expression of lipoxygenase gene, persistency” value (lipoxygenase gene) was “maintained for the longest time”, the inhibition of germination [2] was “clearly inhibited” and the germination [3] was “inhibited”.
